Molecules are shown by their SMILES.

The subject of one assay is Escherichia coli (ATCC25922) or Staphylococcus aureus (ATCC25923). Briefly: Antibacterial MIC, microdilution method in Mueller-Hinton medium. The conditions noted are these: Escherichia coli, 18 h, MIC in E. coli or S. aureus; two-fold serial dilutions 64 to 0.5 μg/ml in duplicate; 18 hours of incubation at 35° C.; read-out: Potency (MIC). It counts as cell-based. A digest of the protocol: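 Read after 18 h incubation at 35° C, MIC is the lowest compound level that blocked growth. Compounds were tested in duplicate over 64–0.5 μg/ml two-fold dilutions using Mueller-Hinton microdilution per NCCLS standard.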
Turning to `Cl.O=C(Nc1ccc(O)cc1)c1ccc(Nc2nc(N3CCCCC3)nc(N3CCCCC3)n2)cc1O` [N-[3-hydroxy-4-(4-hydroxy-phenylcarbamoyl)-phenyl]-4,6-Bis((3R,5S)-3,5-0diamino-piperidin-1-yl)-[1,3,5]triazine-2-amine], the MIC was < 16 µg/mL. Turning to `Cc1cccc(NC(=O)c2ccc(Nc3nc(N4CCCCC4)nc(N4CCCCC4)n3)cc2O)n1.Cl` [N-[3-hydroxy-4-(6-methyl-pyridin-2-ylcarbamoyl)-phenyl]-4,6-Bis-((3R,5S)-3,5-diamino-piperidin-1-yl)-[1,3,5]triaazine-2-amine], the MIC is < 64 µg/mL. As for `Cl.NS(=O)(=O)c1ccc(NC(=O)c2ccc(Nc3nc(N4CCCCC4)nc(N4CCCCC4)n3)cc2O)cc1` [N-[3-hydroxy-4-{4-sulfamoyl-phenylcarbamoyl)-phenyl]-4,6-Bis-((3R,5S)-3,5-diamino-piperidin-1-yl)-[1,3,5]triazine-22-amine], the MIC was > 64 µg/mL. Consider `Cc1cc(C)c(S(=O)(=O)Nc2ccc(Nc3nc(N4CCCCC4)nc(N4CCCCC4)n3)cc2O)c(C)c1.Cl` [N-[3-hydroxy-(2,4,6-trimethyl-benzenesulfonylamino)-phenyl]-4,6-Bis-((3R,5S)-3,5-diamino-pperidin-1-yl)-[1,3,5]triazine-2-amine], for which the minimum inhibitory concentration (MIC) is < 64 µg/mL. For `Cl.O=S(=O)(c1cc(Nc2nc(N3CCCCC3)nc(N3CCCCC3)n2)ccc1N1CCOCC1)N1CCOCC1` [N-[3-morpholine-4-sulfonyl)-4-morpholin-4-yl-phenyl]-4,6-Bis-((3R,5S)-3,5-diamino-piperidin-1-yl)-[1,3,5]triazine-2-amine], the MIC was > 64 µg/mL. Turning to `N[C@@H]1C[C@H](N)CN(c2nc(Nc3ccc(S(=O)(=O)Nc4ccc5cn[nH]c5c4)cc3)nc(N3C[C@H](N)C[C@H](N)C3)n2)C1` [N-[4-(1H-indazol-6-ylsulfamoyl)-phenyl]-4,6-Bis-((3R,5S)-3,5-diamino-piperidin-1-yl)-[1,3,5]triazine-2-amine], the MIC was > 64 µg/mL. On the same count and under the same terms, the value for `N[C@@H]1C[C@H](N)CN(c2nc(Nc3ccc(NC(=O)C(F)(F)F)cc3)nc(N3C[C@H](N)C[C@H](N)C3)n2)C1` [N-[4-(2,2,2-trifluoro-acetylamino)-phenyl]-4,6-Bis-((3R,5S)-3,5-diamino-piperidin-1-yl)-[1,3,5]triazine-2-amine] was > 64 µg/mL.

For `CC(C)(C)C(=O)Nc1ccc(Nc2nc(N3CCCCC3)nc(N3CCCCC3)n2)cc1O.Cl` [N-[4-(2,2-dimethyl-propionylammino)-3-hydroxy-phenyl]-4,6-Bis-((3R,5S)-3,5-diamino-piperidin-1-yl)-[1,3,5]triazine-2-amine], the MIC was < 64 µg/mL. Still for that read-out and setting: the same measure for `Cl.O=C(Nc1ccc(Cl)cc1Cl)c1ccc(Nc2nc(N3CCCCC3)nc(N3CCCCC3)n2)cc1O` [N-[4-(2,4-dichloro-phenylcarbamoyl)-3-hydroxy-phhenyl]-4,6-Bis-((3R,5S)-3,5-diamino-piperidin-1-yl)-[1,3,5]triazine-2-amine]: < 16 µg/mL.

Still in this assay, the particulars now being: Escherichia coli, 18 h, read-out: Potency (MIC).
For `N[C@@H]1C[C@H](N)CN(c2nc(Nc3ccc(C(=O)N4CCNC(=O)C4)c(O)c3)nc(N3C[C@H](N)C[C@H](N)C3)n2)C1` [N-[3-hydroxy-4-(3-oxo-piperazine-1-carbonyl)-phenyl]-4,6-Bis-((3R,5S)-3,5-diamino-piperidin-1-yl)-[1,3,5]triazine-2-amine], the MIC is > 64 µg/mL. As to `N[C@@H]1C[C@H](N)CN(c2nc(Nc3ccc(NC(=O)C=Cc4ccccc4)c(O)c3)nc(N3C[C@H](N)C[C@H](N)C3)n2)C1` [N-[3-hydroxy-4-(3-phenyl-acryloylamino)-phenyl]-4,6-Bis-((3R,5S)-3,5-diamino-piperidin-1-yl)-[1,3,5]triazine-2-amine], the MIC was < 16 µg/mL. Still for that read-out and setting: the same measure for `N[C@@H]1C[C@H](N)CN(c2nc(Nc3ccc(C(=O)Nc4cccc(OC(F)(F)F)c4)c(O)c3)nc(N3C[C@H](N)C[C@H](N)C3)n2)C1` [N-[3-hydroxy-4-(3-trifluoromethoxy-phenylcarbamoyl)-phenyl]-4,6-Bis-((3R,5S)-3,5-diamino-piperidin-1-yl)-[1,3,5]triazine-2-amine]: < 16 µg/mL; for `N[C@@H]1C[C@H](N)CN(c2nc(Nc3ccc(C(=O)Nc4cccc(C(F)(F)F)c4)c(O)c3)nc(N3C[C@H](N)C[C@H](N)C3)n2)C1` [N-[3-hydroxy-4-(3-trifluoromethyl-phenylcarbamoyl)-phenyl]-4,6-Bis-((3R,5S)-3,5-diamino-piperidin-1-yl)-[1,3,5]triazine-2-amine]: < 16 µg/mL. As to `N[C@@H]1C[C@H](N)CN(c2nc(Nc3ccc(C(=O)Nc4cccc(SC(F)(F)F)c4)c(O)c3)nc(N3C[C@H](N)C[C@H](N)C3)n2)C1` [N-[3-hydroxy-4-(3-trifluoromethylsulfanyl-phenylcarbamoyl)-phenyl]-4,6-Bis-((3R,5S)-3,5-diamino-piperidin-1-yl)-[1,3,5]triazine-2-amine], the MIC was < 16 µg/mL. On the same count and under the same terms, the same measure for `COc1ccc(C(=O)Nc2ccc(Nc3nc(N4C[C@H](N)C[C@H](N)C4)nc(N4C[C@H](N)C[C@H](N)C4)n3)cc2O)cc1` [N-[3-hydroxy-4-(4-methoxy-benzoylamino)-phenyl]-4,6-Bis-((3R,5S)-3,5-diamino-piperidin-1-yl)-[1,3,5]triazine-2-amine]: < 16 µg/mL. Take `COc1ccc(NC(=O)c2ccc(Nc3nc(N4C[C@H](N)C[C@H](N)C4)nc(N4C[C@H](N)C[C@H](N)C4)n3)cc2O)cc1` [N-[3-hydroxy-4-(4-methoxy-phenylcarbamoyl)-phenyl]-4,6-Bis-((3R,5S)-3,5-diamino-piperidin-1-yl)-[1,3,5]triazine-2-amine]: the MIC is < 64 µg/mL. Same read-out and setting: the same measure for `Cc1cc(=O)oc2cc(NC(=O)c3ccc(Nc4nc(N5C[C@H](N)C[C@H](N)C5)nc(N5C[C@H](N)C[C@H](N)C5)n4)cc3O)ccc12` [N-[3-hydroxy-4-(4-methyl-2-oxo-2H-chromen-7-ylcarbamoyl)-phenyl]-4,6-Bis-((3R,5S)-3,5-diamino-piperidin-1-yl)-[1,3,5]triazine-2-amine]: < 16 µg/mL; for `Cc1ccc(C(=O)Nc2ccc(Nc3nc(N4C[C@H](N)C[C@H](N)C4)nc(N4C[C@H](N)C[C@H](N)C4)n3)cc2O)cc1` [N-[3-hydroxy-4-(4-methyl-benzoylamino)-phenyl]-4,6-Bis-((3R,5S)-3,5-diamino-piperidin-1-yl)-[1,3,5]triazine-2-amine]: < 16 µg/mL. As to `CCCCC(=O)Nc1ccc(S(=O)(=O)Nc2ccc(Nc3nc(N4C[C@H](N)C[C@H](N)C4)nc(N4C[C@H](N)C[C@H](N)C4)n3)cc2O)cc1` [N-[3-hydroxy-4-(4-pentanoylamino-benzenesulfonylamino)-phenyl]-4,6-Bis-((3R,5S)-3,5-diamino-piperidin-1-yl)-[1,3,5]triazine-2-amine], the minimum inhibitory concentration (MIC) is < 64 µg/mL. Regarding `N[C@@H]1C[C@H](N)CN(c2nc(Nc3ccc(C(=O)Nc4ccc(SC(F)(F)F)cc4)c(O)c3)nc(N3C[C@H](N)C[C@H](N)C3)n2)C1` [N-[3-hydroxy-4-(4-trifluoromethylsulfanyl-phenylcarbamoyl)-phenyl]-4,6-Bis-((3R,5S)-3,5-diamino-piperidin-1-yl)-[1,3,5]triazine-2-amine], the MIC is < 64 µg/mL.

As for `CC(C)CCCCCC(=O)Nc1ccc(Nc2nc(N3C[C@H](N)C[C@H](N)C3)nc(N3C[C@H](N)C[C@H](N)C3)n2)cc1O` [N-[3-hydroxy-4-(7-methyl-octanoylamino)-phenyl]-4,6-Bis-((3R,5S)-3,5-diamino-piperidin-1-yl)-[1,3,5]triazine-2-amine], the MIC was < 16 µg/mL. With `N[C@@H]1C[C@H](N)CN(c2nc(Nc3ccc(C(=O)N4CCOCC4)c(O)c3)nc(N3C[C@H](N)C[C@H](N)C3)n2)C1` [N-[3-hydroxy-4-(morpholine-4-carbonyl)-phenyl]-4,6-Bis-((3R,5S)-3,5-diamino-piperidin-1-yl)-[1,3,5]triazine-2-amine], the MIC is > 64 µg/mL. For the molecule `N[C@@H]1C[C@H](N)CN(c2nc(Nc3ccc(C(=O)Nc4ccc5[nH]cnc5c4)c(O)c3)nc(N3C[C@H](N)C[C@H](N)C3)n2)C1` [N-[4-(1H-benzoimidazol-5-ylcarbamoyl)-3-hydroxy-phenyl]-4,6-Bis-((3R,5S)-3,5-diamino-piperidin-1-yl)-[1,3,5]triazine-2-amine], the MIC was < 16 µg/mL. `N[C@@H]1C[C@H](N)CN(c2nc(Nc3ccc(C(=O)Nc4ccc5c(c4)OC(F)(F)O5)c(O)c3)nc(N3C[C@H](N)C[C@H](N)C3)n2)C1` [N-[4-(2,2-difluoro-benzo[1,3]dioxol-5-ylcarbamoyl)-3-hydroxy-phenyl]-4,6-Bis-((3R,5S)-3,5-diamino-piperidin-1-yl)-[1,3,5]triazine-2-amine]: the MIC was < 16 µg/mL. As for `N[C@@H]1C[C@H](N)CN(c2nc(Nc3ccc(NC(=O)c4cccc(O)c4O)c(O)c3)nc(N3C[C@H](N)C[C@H](N)C3)n2)C1` [N-[4-(2,3-dihydroxy-benzoylamino)-3-hydroxy-phenyl]-4,6-Bis-((3R,5S)-3,5-diamino-piperidin-1-yl)-[1,3,5]triazine-2-amine], the MIC is < 16 µg/mL. Same read-out and setting: the value for `Cc1cc(Nc2nc(N3C[C@H](N)C[C@H](N)C3)nc(N3C[C@H](N)C[C@H](N)C3)n2)ccc1NC(=O)c1cccc(O)c1O` [N-[4-(2,3-dihydroxy-benzoylamino)-3-methyl-phenyl]-4,6-Bis-((3R,5S)-3,5-diamino-piperidin-1-yl)-[1,3,5]triazine-2-amine] was < 16 µg/mL. `N[C@@H]1C[C@H](N)CN(c2nc(Nc3ccc(NC(=O)c4cccc(O)c4O)cc3)nc(N3C[C@H](N)C[C@H](N)C3)n2)C1` [N-[4-(2,3-dihydroxy-benzoylamino)-phenyl]-4,6-Bis-((3R,5S)-3,5-diamino-piperidin-1-yl)-[1,3,5]triazine-2-amine]: the MIC is < 16 µg/mL. On to `Cc1cc(O)c(C)c(O)c1C(=O)Nc1ccc(Nc2nc(N3C[C@H](N)C[C@H](N)C3)nc(N3C[C@H](N)C[C@H](N)C3)n2)cc1` [N-[4-(2,4-dihydroxy-3,6-dimethyl-benzoylamino)-phenyl]-4,6-Bis-((3R,5S)-3,5-diamino-piperidin-1-yl)-[1,3,5]triazine-2-amine], for which the MIC was < 16 µg/mL.

As usually defined, the MIC is the lowest concentration that inhibits growth of the organism.

The values above are taken from US7223759B2, “Antibacterial 3,5-diaminopiperidine-substituted aromatic and heteroaromatic compounds” (Anadys Pharmaceuticals, Inc., priority 2003, dated 2007).
